The values below come from article PMC8951032, “Study of Biological Activities and ADMET-Related Properties of Novel Chlorinated N-arylcinnamamides” (International Journal of Molecular Sciences, 2022).

In brackets after ≈: the same amount, converted by molar mass. Where two headings read alike, the source gives them in different places. Where only a bound is given, the exact number is not on record here.

Experiment [1] has as its system Enterococcus faecalis ATCC 29212. As to the kind of experiment: In vitro antienterococcal activity, microtitration broth MIC. It is filed as cell-based.
Experiment [2] concerns porcine monocyte-derived macrophages (MDM). As to the kind of experiment: In vitro cell viability, CCK-8. It is filed as cell-based. The conditions noted are these: Sus scrofa, Macrophage, 10% fetal bovine serum. The procedure: The effect of the compounds on viability of eukaryotic cells was evaluated on human leukemia cell line THP-1, human synovial cell line SW982, and isolated primary porcine monocytes-delivered macrophages (MDM). The general cytotoxic effect was studied on THP-1 cells in the serum-free medium (only THP-1 as the only cells used in this study are able to survive in serum-free medium). Most of the compounds had no cytotoxic effect on THP-1 cells. […] This could be caused by the direct interaction of such compounds with serum proteins or by the effect of mitogens, cytokines, and hormones present in the serum. Obviously, the full medium is closer to physiological conditions in living organisms, so it can be assumed that these compounds could be non-toxic there.
Porcine monocyte-derived macrophages (MDMs) were prepared, as described previously. Briefly, blood was collected from three-month-old pigs and peripheral blood mononuclear cells (PBMC) were isolated by gradient centrifugation (830× g, 40 min) using Histopaque-1077 (Sigma). CD14+ cells were isolated by positive magnetic bead selection with LS separation columns (Miltenyi Biotec, Bergisch Gladbach, Germany). Isolated monocytes were cultured in 96-well plates at a concentration of 1 × 10^5 cells per well in 0.2 mL of DMEM supplemented with 10% FBS and 1% antibiotics (Antibiotic Antimycotic Solution 100 × 10,000 units penicillin, 10 mg streptomycin, and 25 μg amphotericin B per mL; Sigma) and incubated for five days at 37 °C in 5% CO2 to differentiate into macrophages. Then, MDMs were cultured for 24 h with tested substances and the relative cell viability was determined by CCK-8 kit (Sigma) following manufacturer instructions.

The subject of experiment [3] is methicillin-resistant S. aureus SA 630. As to the kind of experiment: In vitro antistaphylococcal activity, microtitration broth MIC. It is filed as cell-based. The conditions noted are these: Staphylococcus aureus.
Experiment [4] has as its system THP-1 cells. The experiment can be described thus: Cell death assay by flow cytometry (Annexin V / LIVE/DEAD). It is filed as cell-based, human. The conditions noted are these: serum-free medium, 24 h. The procedure:
Subsequently, compounds 2k and 2q were selected for analysis by flow cytometry and cytotoxic effects were detected after treatment of cells by 2k and 2q in serum-free medium at two selected concentrations, 1.0 µM and 0.5 µM, respectively. […] Moreover, 2k increased the number of dead cells (20%) (Figure 2). […] Thus, it can be assumed that 2k attenuates cell metabolism.
Annexin V eFluor450 (Invitrogene, Waltham, MA, USA) with LIVE/DEAD Fixable Far Red Dead Cell Stain Kit (Invitrogene) were used for the analysis of cell death. THP-1 cells resuspended in serum-free medium and treated by two selected drugs, such as 2q and 2k, by IC50 concentrations, 0.5 µM and 1.0 µM, respectively, for 24 h. Cells were double-stained by AnnexinV eFluor 450 (1:20) and LIVE/DEAD Fixable Far Red (3:1000). Finally, the cells were analysed by flow cytometer (Amnis CellStream; Luminex, Austin, TX, USA) and the data were evaluated by CellStream Analysis 1.2.55 software. The dot plots were divided into four quadrants. Live cells (low left quadrant), apoptosis (upper-left quadrant) and necrosis as a terminal stage of cell death (upper-right quadrant) were distinguished. Experiments were performed in duplicates and in three independent repetitions.
In general terms: A flow cytometer gives signals particle by particle.

The mark [5] stands for this setting: ATCC29212, 24 h, E. faecalis reference strain, read-out: log(1/MIC [M]) EF (converted).
[6] abbreviates: ATCC29212, E. faecalis reference strain, 24 h, read-out: MIC EF.
[7] abbreviates: 24 h, read-out: IC50 MDM 10% FSB.
Setting [8] is: read-out: log(1/IC50 [M]) MDM 10% FSB (converted).
Where [9] appears, read: 24 h, MRSA SA 630, read-out: log(1/MIC [M]) MRSA2 (converted).
The mark [10] stands for this setting: MRSA SA 630, 24 h, read-out: MIC MRSA2.

Take `O=C(/C=C/c1ccc(Cl)c(Cl)c1)Nc1ccc(C(F)(F)F)cc1` [2j, (2E)-3-(3,4-Dichlorophenyl)-N-[4-(trifluoromethyl)phenyl]prop-2-enamide]: the MIC in experiment [1] (setting [5]) was 1.12e-05 M (≈ 4.04 µg/mL); in experiment [1] (setting [6]) it was 1.11e-05 M (≈ 4 µg/mL); in experiment [3] (setting [9]), 3.72e-07 M (≈ 0.134 µg/mL); in experiment [3] (setting [10]), 3.71e-07 M (≈ 0.134 µg/mL). The IC50 in experiment [2] (setting [7]) and in experiment [2] (setting [8]) was greater than 1e-05 M each time.
As for `O=C(/C=C/c1ccc(Cl)c(Cl)c1)Nc1ccc(OC(F)(F)F)cc1` [2k, (2E)-3-(3,4-Dichlorophenyl)-N-[4-(trifluoromethoxy)phenyl]prop-2-enamide], the MIC was 4.68e-06 M (≈ 1.76 µg/mL) in experiment [1] (setting [5]), 1.06e-05 M (≈ 3.99 µg/mL) in experiment [1] (setting [6]), 1.32e-06 M (≈ 0.496 µg/mL) in experiment [3] (setting [9]) and 1.33e-06 M (≈ 0.5 µg/mL) in experiment [3] (setting [10]). Also, in experiment [4] (2k 1.0 µM), the “number of dead cells” value amounted to 20%. Also, the IC50 in experiment [2] (setting [7]) and in experiment [2] (setting [8]) was greater than 1e-05 M in each case.
Regarding `O=C(/C=C/c1ccc(Cl)cc1)Nc1cc(Cl)cc(Cl)c1` [1p, (2E)-3-(4-Chlorophenyl)-N-(3,5-dichlorophenyl)prop-2-enamide], the MIC in experiment [1] (setting [5]) is greater than 0.000776 M; in experiment [1] (setting [6]), greater than 0.000783 M; in experiment [3] (setting [9]), 3.8e-07 M (≈ 0.124 µg/mL); in experiment [3] (setting [10]), 3.83e-07 M (≈ 0.125 µg/mL). Further, the IC50 in experiment [2] (setting [7]) and in experiment [2] (setting [8]) was greater than 1e-05 M throughout.
`O=C(/C=C/c1ccc(Cl)c(Cl)c1)Nc1ccccc1` [2a, (2E)-3-(3,4-Dichlorophenyl)-N-phenylprop-2-enamide]: the MIC in experiment [1] (setting [5]) is 0.000871 M (≈ 254 µg/mL); in experiment [1] (setting [6]), 0.000876 M (≈ 256 µg/mL); in experiment [3] (setting [9]) it was greater than 0.000871 M; in experiment [3] (setting [10]), greater than 0.000876 M. Also, the IC50 in experiment [2] (setting [7]) and in experiment [2] (setting [8]) was greater than 1e-05 M throughout.
`O=C(/C=C/c1ccc(Cl)c(Cl)c1)Nc1cccc(C(F)(F)F)c1` [2i, (2E)-3-(3,4-Dichlorophenyl)-N-[3-(trifluoromethyl)phenyl]prop-2-enamide]: the MIC in experiment [1] (setting [5]) is 2.24e-05 M (≈ 8.06 µg/mL); in experiment [1] (setting [6]), 2.22e-05 M (≈ 8 µg/mL); in experiment [3] (setting [9]), 1.38e-06 M (≈ 0.497 µg/mL); in experiment [3] (setting [10]), 1.39e-06 M (≈ 0.501 µg/mL). Besides, the IC50 in experiment [2] (setting [7]) and in experiment [2] (setting [8]) was greater than 1e-05 M throughout.
Take `O=C(/C=C/c1ccc(Cl)c(Cl)c1)Nc1cc(C(F)(F)F)cc(C(F)(F)F)c1` [2q, (2E)-N-[3,5-bis(Trifluoromethyl)phenyl]-3-(3,4-dichlorophenyl)prop-2-enamide]: the MIC in experiment [1] (setting [5]) was 1.07e-05 M (≈ 4.59 µg/mL); in experiment [1] (setting [6]), 4.67e-06 M (≈ 2 µg/mL); in experiment [3] (setting [9]), 1.35e-07 M (≈ 0.0578 µg/mL); in experiment [3] (setting [10]) it was 1.36e-07 M (≈ 0.0582 µg/mL). In addition, in experiment [4] (2q 0.5 µM), the “apoptosis (in words)” value was “not observed”. In addition, the “necrosis (in words)” value in experiment [4] (2q 0.5 µM) is on record as “significantly induced”. Further, the IC50 in experiment [2] (setting [7]) lay within 5e-06 to 1e-05 M.
Take `O=C(/C=C/c1ccc(Cl)cc1)Nc1cccc(C(F)(F)F)c1` [1i, (2E)-3-(4-Chlorophenyl)-N-[3-(trifluoromethyl)phenyl]prop-2-enamide]: the MIC was greater than 0.000794 M in experiment [1] (setting [5]), greater than 0.000786 M in experiment [1] (setting [6]), 3.09e-06 M (≈ 1.01 µg/mL) in experiment [3] (setting [9]) and 3.07e-06 M (≈ 1 µg/mL) in experiment [3] (setting [10]). The IC50 in experiment [2] (setting [7]) and in experiment [2] (setting [8]) was greater than 1e-05 M each time.
In the case of `O=C(/C=C/c1ccc(Cl)cc1)Nc1cc(C(F)(F)F)cc(C(F)(F)F)c1` [1q, (2E)-N-[3,5-bis(Trifluoromethyl)phenyl]-3-(4-chlorophenyl)prop-2-enamide], the MIC in experiment [1] (setting [5]) was 0.000324 M (≈ 127 µg/mL); in experiment [1] (setting [6]), 0.000325 M (≈ 128 µg/mL); in experiment [3] (setting [9]), 3.16e-07 M (≈ 0.125 µg/mL); in experiment [3] (setting [10]) it was 3.18e-07 M (≈ 0.125 µg/mL). Also, the IC50 in experiment [2] (setting [7]) and in experiment [2] (setting [8]) was greater than 1e-05 M throughout.
